Results from paper PMC6332334, “3-H-[1,2]Dithiole as a New Anti-Trypanosoma cruzi Chemotype: Biological and Mechanism of Action Studies” (Molecules, 2015).
Where two headings read alike, the source gives them in different places.

Tests used:
[1] = tested on: epimastigotes of T. cruzi (Tulahuen 2 strain); set-up: method as in PMID 25512408; details: reference trypanosomicidal drugs; read-out: IC50 against epimastigotes of T. cruzi (reference drugs); cited from earlier work
[2] = tested on: T. cruzi cells (Y strain, DTU Tc II); experiment: 1H-NMR study of the excreted metabolites; assay type: cell-based, Trypanosoma cruzi
Procedure: To gain insight into the changes promoted by the active 3-propylidene[1,2]dithioles 2 and 14 in some biochemical pathways, the metabolites excreted by the parasite using ^1H-NMR spectroscopy were analyzed. Changes in the excreted metabolites by T. cruzi Y strain (DTU Tc II, [24]), when the parasite cells were exposed to a bioactive compound, could be indicative of the modification of the biochemical pathway(s) by the agents. Spectra of the cell-free milieu of treated parasites were compared with those of the untreated T. cruzi-free milieu as the control. We focused mainly on the changes of excreted salts of the carboxylic acids, lactate (Lac), acetate (Ace), pyruvate (Pyr), and succinate (Succ) and the amino acids, alanine (Ala) and glycine (Gly), among the most relevant modified metabolites.
For the ^1H-NMR spectroscopic studies, T. cruzi cells (Y strain, DTU Tc II) treated for 2 days, with each studied compound at concentrations corresponding to 2 × IC50 values (5 mL) were centrifuged at 1500× g for 10 min at 4 °C. The pellet was discarded, and the parasite-free supernatant was stored at −20 °C until use. Before measuring, DMF (0.1 mL, 10 mM) as the internal standard and D2O (0.1 mL) were added to the supernatant (0.3 mL). ^1H-NMR experiments were recorded at 20 °C on a Bruker Advance DPX-400 spectrometer (Bruker), operating at 400.132 MHz, with a 5 mm broadband inverse geometry probe. The acquisition parameters included: 90° pulse (zgpr, advance-version v 1.7.10.2, 1D sequence with f1 presaturation), 128 scans, and spectral width of 14.983 ppm. The acquisition time was 1.3664 s. Signal intensities were calculated by performing appropriate baseline corrections and then integrating the area under each of the resonances using MestRe-C NMR software. Spectra were analyzed using the Topspin 1.3 software package. The spectra were registered with water suppression in 5 mm NMR (Aldrich, St. Louis, MO, USA) sample tubes. The chemical displacements used to identify the respective metabolites were previously confirmed by adding each analyzed metabolite to the studied supernatant, as well as by the study of a control solution with 4 μg/mL of each metabolite in buffer (phosphate, pH = 7.4). Each run was done at least in triplicate and the Student t test was used to analyze the significance of the changes. […]

[3] = tested on: epimastigotes of T. cruzi (Tulahuen 2 strain); experiment: Anti-T. cruzi test in vitro (epimastigote growth inhibition); assay type: cell-based, Trypanosoma cruzi; details: for IC50: Trypanosoma cruzi, epimastigotes, Tulahuen 2 strain, triplicate, read-out: IC50 against T. cruzi
Procedure: (§1) To evaluate the anti-trypanosomal activity of the synthesized 3H-[1,2]dithioles we used T. cruzi, Tulahuen 2 strain (discrete typing unit, DTU, TcVI [18]) in the epimastigote form. […] To establish the selectivity of the compounds against the parasite, unspecific cytotoxicity against mammalian cells (J774.1 murine macrophages) was studied for the most relevant derivatives. The selectivity indexes (SI) were also determined (Table 1).
We used epimastigotes of the Tulahuen 2 strain (DTU, Tc VI) growing in an axenic milieu (BHI-Tryptose). Cells from a 5–7-day-old culture were inoculated in fresh culture milieu to give an initial concentration of 1 × 10^6 cells/mL. The absorbance at 600 nm of the cells in culture was measured every day. At day 5, the milieu was inoculated with different quantities of the compounds from a stock solution in DMSO (DMSO concentration in the culture milieu never exceeded 0.4%). The control was made in the presence of 0.4% DMSO and in the absence of compounds. […] At day 5, the absorbance of the culture was measured and related to the control. The IC50 value was taken as the concentration of drug needed to reduce the absorbance ratio to 50%.

[4] = tested on: J774.1 murine macrophages; experiment: Unspecific in vitro cytotoxicity of mammalian cells (MTT); assay type: cell-based; details: Mus musculus, 48 h exposure, read-out: IC50 against Macrophages
Procedure: as §1
J774.1 murine macrophage cells (ATCC, Manassas, VA, USA) were grown in DMEM culture milieu containing 4 mM L-glutamine and supplemented with 10% heat-inactivated fetal calf serum. […] Afterwards, cells were exposed for 48 h to the compounds (25–400 μM) or vehicle for control (0.4% DMSO), and additional controls (cells in medium) were used in each test. Cell viability was then assessed by measuring the mitochondria-dependent reduction of MTT (3-(4,5-dimethylthiazol-2-yl)-2,5-diphenyltetrazolium bromide) to formazan. For this purpose, MTT in sterile PBS (0.2% glucose) pH 7.4 was added to the macrophages to achieve a final concentration of 0.1 mg/mL and the cells were incubated at 37 °C for 3 h. After removing the medium, formazan crystals were dissolved in 180 μL of DMSO and 20 μL of MTT buffer (0.1 M glycine, 0.1 M NaCl, 0.5 mM EDTA, pH 10.5) and the absorbance at 560 nm was measured. The IC50 was defined as the drug concentration at which 50% of the cells were viable, relative to the control (no drug added), and was determined by analysis using OriginLab8.5® sigmoidal regression (% of viable cells vs. logarithm of the compound concentration). Samples were performed in triplicate.

cruzipain [5] = biological target: T1, cruzipain (Trypanosoma cruzi, UniProt P25779); experiment: Inhibition of T. cruzi cruzipain (Z-Phe-Arg-AMC fluorogenic substrate); assay type: biochemical; details: percentage of enzymatic inhibition at 100 μM; read-out: Cruzipain % Inhib100
T1 construct: endogenous in cells; host or cells: T. cruzi epimastigotes, Tulahuen 2 strain
T1 sequence (P25779 123-467): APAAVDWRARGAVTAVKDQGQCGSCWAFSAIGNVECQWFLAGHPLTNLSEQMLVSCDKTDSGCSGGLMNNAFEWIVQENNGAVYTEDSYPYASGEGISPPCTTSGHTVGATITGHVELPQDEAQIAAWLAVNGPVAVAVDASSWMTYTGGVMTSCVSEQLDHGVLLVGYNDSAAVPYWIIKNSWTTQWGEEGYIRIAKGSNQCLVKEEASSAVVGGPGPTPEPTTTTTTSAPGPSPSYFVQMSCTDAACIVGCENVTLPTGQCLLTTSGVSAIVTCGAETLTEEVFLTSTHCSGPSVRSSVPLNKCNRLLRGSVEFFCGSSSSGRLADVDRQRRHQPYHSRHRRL
Procedure: Initially, we tested the dithioles as inhibitors of the protease cruzipain from T. cruzi at a concentration of 100 μM.
Cruzipain was purified to homogeneity from epimastigotes of the Tulahuen 2 strain by ConA-Sepharose affinity chromatography, as previously described. Cruzipain (2.5 μM ε = 58,285 M^−1·cm^−1) was incubated in 50 mM acetate buffer pH 5.5 with 50 mM DTT and 100 μM inhibitor was added, shaking the solution for 15 min at 27 °C. The derivatives were added diluted in DMSO, and the controls contained the same solvent concentration. The concentration of DMSO never exceeded 1% in the reaction medium. E-64 was used as a positive control of inhibition. Then, the fluorogenic substrate Z-Phe-Arg-AMC (100 μM) was added and the fluorescence was measured during 10 min at intervals of 3 s (excitation at 350 nm and emission at 460 nm) using a Varioskan Flash Spectrophotometer. From the slope of the negative control, we calculated the total (100%) enzyme activity, while the slopes obtained in the presence of the compounds yielded the percentage of remaining enzyme activity. The percentage of enzyme inhibition was determined as […]. The experiments were done in duplicate.

[6] = biological target: T2, Trypanosoma cruzi triosephosphate isomerase (TcTIM) (Trypanosoma cruzi, UniProt P52270); experiment: Inhibition of enzymatic activity of TcTIM; assay type: biochemical; details: for inhibition at 25 µM: percentage of enzymatic inhibition at 25 μM, read-out: TcTIM % Inhib25; for inhibition at 200 µM: percentage of enzymatic inhibition at 200 μM, read-out: TcTIM % Inhib200
T2 construct: made in house; host or cells: Escherichia coli
T2 sequence (P52270 whole entry): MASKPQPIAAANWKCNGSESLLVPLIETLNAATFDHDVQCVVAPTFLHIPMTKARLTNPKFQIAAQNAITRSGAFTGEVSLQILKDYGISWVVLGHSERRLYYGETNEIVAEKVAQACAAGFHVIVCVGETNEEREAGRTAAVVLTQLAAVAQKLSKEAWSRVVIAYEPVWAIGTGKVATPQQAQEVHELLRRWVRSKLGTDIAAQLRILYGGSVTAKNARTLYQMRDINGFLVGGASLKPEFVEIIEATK
Procedure: In order to investigate if the 3H-[1,2]dithioles inhibit TcTIM, we initially tested the inhibitory capacity of the compounds at a concentration of 200 μM and then at 25 μM.
Expression and purification of protein: TcTIM was expressed in Escherichia coli and purified as described in the literature. After purification, the enzyme, dissolved in 100 mM triethanolamine, 10 mM EDTA and 1 mM dithiothreitol (pH 8), was precipitated with ammonium sulfate (75% saturation) and stored at 4 °C. Before use, extensive dialysis against 100 mM triethanolamine/10 mM EDTA (pH 7.4) was performed. Protein concentration was determined by absorbance at 280 nm (ε = 36,440 M^−1·cm^−1).
Enzymatic activity assays. Enzymatic activity was determined following the conversion of glyceraldehyde 3-phosphate into dihydroxyacetone phosphate. The decrease in absorbance at 340 nm was followed in a multicell Cary spectrophotometer at 25 °C. The reaction mixture (1 mL, pH 7.4) contained 100 mM triethanolamine, 10 mM EDTA, 0.2 mM NADH, 1 mM glyceraldehyde 3-phosphate, and 0.9 units of α-glycerol phosphate dehydrogenase. The reaction was initiated by addition of 5 ng/mL of the TcTIM.
For inactivation studies, TcTIM was incubated at a concentration of 5 mg/mL in a buffer containing 100 mM triethanolamine, 10 mM EDTA, pH 7.4 and 10% of DMSO at 36 °C. The mixture also contained the compounds at the indicated concentrations. Compounds were dissolved in DMSO. After 2 h, […] was withdrawn and added to 1 mL of reaction mixture for the activity assay. None of the molecules tested here affected the activity of α-glycerol phosphate dehydrogenase, the enzyme used for trapping the product.
The IC50 value was taken as the concentration of drug needed to reduce the enzymatic activity to 50%. The experiments were performed in triplicate.

cruzipain [7] = biological target: T1, cruzipain; experiment: Inhibition of T. cruzi cruzipain (Z-Phe-Arg-AMC fluorogenic substrate); assay type: biochemical; details: isolated enzyme
T. cruzi = details: positive control of the sterol study; source not given; read-out: IC50 of terbinafine; cited from earlier work
[8] = tested on: membrane sterol biosynthesis in epimastigotes of Y strain of T. cruzi; experiment: Inhibition of membrane sterol biosynthesis (qualitative TLC); assay type: cell-based, Trypanosoma cruzi; details: compounds at their IC50, 72 h, 28 °C, compared to control
Procedure: To do so, we analyzed the accumulation or depletion of some intermediates or final products of this biochemical pathway. Qualitative analyses were performed by thin layer chromatography (TLC).
The parasites, epimastigotes of Y strain of T. cruzi (DTU Tc II), were grown in 6 mL of BHT milieu in culture bottles. […] A negative control was performed with parasites in the absence of compounds. […] The extraction of membrane sterols was performed on completion of the incubation. For this purpose, the content of the culture bottle was centrifuged at 3000 rpm for 10 min, the supernatant was discarded and the pellet was suspended in sodium phosphate buffer solution (6 mL, 0.05 M, pH 7.4). Then it was centrifuged again at 3000 rpm for 10 min and the supernatant was discarded. The resulting pellet was resuspended in a chloroform/methanol (2:1) mixture (5 mL) and the suspension was kept at 4 °C for 12 h. Then, a saturated NaCl solution (5 mL) was added and the mixture extracted once with chloroform (3 mL) and once with hexane (3 mL) with care to avoid taking any aqueous phase. The extracted volume was applied to a silica gel TLC plate. Chromatography was performed eluting with hexane, two runs to identify squalene, and once with hexane/EtOAc (8:2) for ergosterol. […] Also, controls and commercial samples of ergosterol, lanosterol, cholesterol and squalene were run on the TLC plate. […]

[9] = IC50 × 2, 2 days, DMF internal standard

inhibition at 100 µM (cruzipain [5]) [%] | inhibition at 25 µM [6] [%] | inhibition at 200 µM [6] [%] | SMILES | IC50 [1] [µM] | IC50 [3] [µM] | IC50 [4] [µM] | other results
– | – | – | O=C(Cn1ccnc1[N+](=O)[O-])NCc1ccccc1 [Bnz, benznidazole] | 7 ± 1 | – | – | –
66.5 ± 0.3 | 38 ± 3.5 | 70 | O=C(CS/C(C(=O)c1ccc2ccccc2c1)=C1\C=C(c2ccc(O)cc2)SS1)c1ccc2ccccc2c1 [Derivative 14] | – | 4.9 ± 1.1 | 63 ± 2 | Concentration of excreted Ace [2, 9]: 26.41 ± 1.44; Concentration of excreted Ala [2, 9]: 20.65 ± 1.27; Concentration of excreted Gly [2, 9]: 2.48 ± 0.14; Concentration of excreted Lac [2, 9]: 10.41 ± 0.58; Concentration of excreted Pyr [2, 9]: 9.47 ± 0.53; Concentration of excreted Succ [2, 9]: 7.34 ± 0.65; Change of excreted metabolites compared to the control ([2]; IC50 × 2, p < 0.05 Student's t-test): did not modify the excreted catabolites
85.4 ± 0.2 | 62 ± 3 | 86 | COc1ccc(C2=C/C(=C(\SCC(C)=O)C(C)=O)SS2)cc1 [Derivative 15] | – | 5.9 ± 1.2 | < 24 | IC50 (cruzipain [7]): 15.1 ± 2.5 µM; SI (selectivity index) ([3]; macrophages (J774.1) vs T. cruzi epimastigotes): <4.1
– | – | – | CC1CS(=O)(=O)CCN1/N=C/c1ccc([N+](=O)[O-])o1 (centres unmarked) [Nfx, nifurtimox] | 8 ± 1 | – | – | –
– | – | – | CN(C/C=C/C#CC(C)(C)C)Cc1cccc2ccccc12 [terbinafine, reference compound] | – | – | – | IC50 (T. cruzi): 44.7 µM; Changes in membrane sterols and intermediates (squalene, ergosterol) [8]: accumulate squalene and deplete ergosterol
